Results as given in US12377191B2, “Chondroinductive peptides and compositions and methods of use thereof” (The Board of Regents of the University of Oklahoma, priority 2018, dated 2025).
Where no end group is shown, it is not given here.

How the values were obtained:
[1] = tested on: rat bone marrow mesenchymal stem cells (rBMSCs); assay: Gene expression (rt-PCR) of rBMSCs on TCT plates, SPPEPS coated or in medium; format: cell-based
Protocol: In one set of experimental groups, the SPPEPS (SEQ ID NO:2) peptide was adsorbed to the well plate surface. The peptide was dissolved in sterile DI water (20 μg/mL), sterile-filtered (0.22 μm), and was added to sterile 96-well plates to reach the desired coating concentrations (0.5, 1 and 3 μg/mm2) before overnight water evaporation at room temperature in sterile conditions. The rBMSCs were thawed and after passage 4 were cultured on the plates (150,000 cells/well, i.e., […]), for the control groups the rBMSCs were cultured (150,000 cells/well) on the uncoated TCT plates and the cell culture medium was changed every second day.
In a separate set of experimental groups, SPPEPS (SEQ ID NO:2) peptide was included in soluble form in the medium instead of being coated on the surface. rBMSCs were cultured on 96-well plates (150,000 cells/well) with cell culture medium containing SPPEPS (SEQ ID NO:2) (50, 100 and 500 ng/ml). The cell culture medium containing the peptide was changed every second day.
rBMSCs were cultured either on TCT plastic plates or on a hydrogel-coated surface. For the cells cultured on TCT plates, three different concentrations of SPPEPS (SEQ ID NO:2) peptide (50, 100 and 500 ng/ml) in cell culture medium, three different coating concentrations (0.5, 1 and 3 μg/mm2) and a control group (no growth factor or peptide in the cell culture medium) were chosen (n=6) and the peptide chondroinductivity was evaluated by rt-PCR after 3 days (see FIGS. 2-4 and gene expression subsection below).
The gene expressions were analyzed for all the rBMSCs samples cultured on the TCT plates after 3 days (n=6) and all the rBMSCs cultured on the hydrogel surface after 3 days (n=4). The gene expressions of each sample were evaluated in triplicate. To prepare the samples for gene expression, the mRNAs were extracted after 3 days using Qiagen RNeasy mini kit (Valencia, CA) following the kit instructions, before reverse transcription using a cDNA kit (Invitrogen, Carlsbad, CA). rt-PCR was performed with a qTOWER^3 Thermal Cycler (Upland. CA) using TaqMan Col2A1, Sox9, ACAN and GAPDH primers (Invitrogen, Carlsbad, CA). GAPDH was used as an endogenous control, with relative gene expression measured using the 2^−ΔΔCt method. For cells on both surfaces, the calibrators were the rBMSCs at passage 4 before transferring them to the 96-well plates.

[2] = tested on: rat bone marrow mesenchymal stem cells (rBMSCs); assay: Preliminary study: chondroinductivity with rBMSCs by rt-PCR; format: cell-based; conditions: 100 ng/ml in medium, 3 days, p<0.05
Protocol: In a preliminary study, the chondroinductivities of Link N peptide (SEQ ID NO: 9, Table 2) and SPPEPS (SEQ ID NO:2) with rBMSCs were evaluated at two plate coating densities (0.5 and 1 μg/mm2) and two soluble concentrations (10 and 100 ng/mL) after 3 days by rt-PCR (n=3). For rBMSCs cultured on TCT plates the chondroinductivity was compared with negative control (no growth factor or peptide in the cell culture medium) and positive control group. The positive control was a known chondrogenic growth factor in lieu of the SPPEPS (SEQ ID NO:2) peptide, i.e., 10 ng/ml (dissolved in rBMSCs cell culture medium) human transforming growth factor-β3 (TGF-β3, R&D systems, Minneapolis, MN).
The gene expressions were analyzed for all the rBMSCs samples cultured on the TCT plates after 3 days (n=6) and all the rBMSCs cultured on the hydrogel surface after 3 days (n=4). The gene expressions of each sample were evaluated in triplicate. […] GAPDH was used as an endogenous control, with relative gene expression measured using the 2^−ΔΔCt method. […]

rBMSC spheroids = assay: Collagen II gene expression of rBMSC spheroids (SPPEPS vs TGF-β3); format: cell-based, rat; conditions: 100 ng/ml SPPEPS; normoxic and hypoxic; n=5
Protocol: Collagen II gene expression with control (no supplement), TGF-β3, or SPPEPS (1, 100 ng/ml). Hypoxic bars are righthand, normoxic bars are lefthand. n=5, p<0.05 difference from αnormoxic control, βhypoxic control, *normoxic counterpart, SSPPEPS (SEQ ID NO: 2) 1 ng/ml, #normoxic TGF-β3,!all groups.

[3] = 50 ng/ml, 100 ng/ml and 500 ng/ml groups, 3 days
[4] = 100 ng/ml in medium, 3 days, p<0.05
[5] = coating 0.5 μg/mm2, 3 days, p<0.05
[6] = coating 1 μg/mm2, 3 days, p<0.05
[7] = coating 3 μg/mm2, 3 days, p<0.05

SPPEPS [chondroinductive peptide]
Sox9 gene expression, times higher than coating group ([1]; 50 ng/ml in medium vs coating 0.5 μg/mm2): 4.5 times | Sox9 gene expression, times higher than coating group ([1]; 50 ng/ml in medium vs coating 1 μg/mm2): 4.9 times | Sox9 gene expression, times higher than coating group ([1]; 50 ng/ml in medium vs coating 3 μg/mm2): 5.2 times | aggrecan gene expression higher compared to the control group ([1]; 50 ng/ml in medium, 3 days, p<0.05): 34% | aggrecan gene expression higher than the control group (FIG. 4 legend) [1, 3]: ~35% | aggrecan gene expression relative to the control group (FIG. 4 legend) [1, 3]: about 1.5 × | collagen type II gene expression higher than the control group (FIG. 3 legend) ([1]; 100 ng/ml in medium, 3 days): 35% | aggrecan gene expression higher compared to the control group [1, 4]: 35% | collagen type II gene expression, times higher than in the control group [1, 4]: 1.5 times | collagen type II gene expression, times higher compared to SPPEPS 50 ng/mL ([1]; 100 ng/ml in medium, p<0.05): 1.5 times | collagen type II gene expression, times higher compared to SPPEPS 500 ng/mL ([1]; 100 ng/ml in medium, p<0.05): 1.6 times | Sox9 gene expression, times higher than coating group ([1]; 500 ng/ml in medium vs coating 0.5 μg/mm2): 3.2 times | Sox9 gene expression, times higher than coating group ([1]; 500 ng/ml in medium vs coating 1 μg/mm2): 3.4 times | Sox9 gene expression, times higher than coating group ([1]; 500 ng/ml in medium vs coating 3 μg/mm2): 3.6 times | aggrecan gene expression higher compared to the control group ([1]; 500 ng/ml in medium, 3 days, p<0.05): 31% | Sox9 gene expression: control group times higher than coating group [1, 5]: 4.0 times | collagen type II gene expression lower than in the control group [1, 5]: 61% | Sox9 gene expression: control group times higher than coating group [1, 6]: 4.2 times | collagen type II gene expression lower than in the control group [1, 6]: 74% | Sox9 gene expression: control group times higher than coating group [1, 7]: 4.5 times | aggrecan gene expression higher compared to the control group [1, 7]: 31% | collagen type II gene expression lower than in the control group [1, 7]: 75% | collagen type II gene expression, times higher than in the control group [2]: 2.3 times | chondroinduction (collagen II gene expression) compared to TGF-β3 (rBMSC spheroids): outperforms TGF-β3
